In ChEMBL document CHEMBL1137625, “Phenylpiperidine-benzoxazinones as urotensin-II receptor antagonists: synthesis, SAR, and in vivo assessment” (Bioorg Med Chem Lett, 2007):
Calls of active or inactive are those of the source. No cut-off for these calls is given here.

How the values were obtained:
Urotensin-2 receptor [1] = biological target: T1, Urotensin-2 receptor (Rattus norvegicus, UniProt P49684); assay: Antagonist activity at rat UT receptor transfected in CHOK1 cells assessed as calcium mobilization by FLIPR method; type: functional, cell-based, CHO-K1
T1 sequence (P49684 whole entry): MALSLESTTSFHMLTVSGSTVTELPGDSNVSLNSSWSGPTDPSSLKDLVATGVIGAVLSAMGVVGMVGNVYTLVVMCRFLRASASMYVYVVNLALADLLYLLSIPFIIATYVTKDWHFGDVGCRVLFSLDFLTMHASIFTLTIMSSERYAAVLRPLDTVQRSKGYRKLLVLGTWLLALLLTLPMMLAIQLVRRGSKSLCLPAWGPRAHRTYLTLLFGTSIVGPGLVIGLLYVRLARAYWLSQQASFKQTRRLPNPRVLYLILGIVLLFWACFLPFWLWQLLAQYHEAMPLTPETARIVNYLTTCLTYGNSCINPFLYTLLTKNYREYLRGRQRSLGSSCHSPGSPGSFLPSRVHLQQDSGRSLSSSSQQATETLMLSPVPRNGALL

Urotensin-2 receptor [2] = biological target: T2, Urotensin-2 receptor (Homo sapiens, UniProt Q9UKP6); assay: Displacement of [125I]U2 from human UT receptor in RMS13 cells after 2.5 hrs; type: cell-based
T2 sequence (Q9UKP6 whole entry): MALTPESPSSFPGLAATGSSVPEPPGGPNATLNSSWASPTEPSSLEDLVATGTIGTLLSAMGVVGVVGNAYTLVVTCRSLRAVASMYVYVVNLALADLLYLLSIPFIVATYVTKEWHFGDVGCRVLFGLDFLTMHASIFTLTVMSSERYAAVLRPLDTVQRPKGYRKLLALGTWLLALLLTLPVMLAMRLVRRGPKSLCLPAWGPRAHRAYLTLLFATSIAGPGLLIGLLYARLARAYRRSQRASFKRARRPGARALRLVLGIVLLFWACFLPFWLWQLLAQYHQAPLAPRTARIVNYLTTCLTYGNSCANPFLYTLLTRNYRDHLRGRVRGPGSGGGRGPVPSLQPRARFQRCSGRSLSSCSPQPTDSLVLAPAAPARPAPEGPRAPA

[3] = Half life in rat at 2 mg/kg, iv; type: ADME, organism-based; set-up: dose 2 mg/kg, route intravenous; conditions: in vivo
[4] = Cmax in rat at 2 mg/kg, iv; type: ADME, organism-based; set-up: dose 2 mg/kg, route intravenous; conditions: in vivo
Rattus norvegicus [5] = assay: Effect on ear pinna temperature in sc dosed rat; type: functional, organism-based
Rattus norvegicus [6] = assay: Decrease in U2-induced ear pinna temperature in iv dosed rat; type: functional, organism-based

Row | Structure (SMILES) | IC50 (Urotensin-2 receptor [1]) [µM] | Ki (Urotensin-2 receptor [2]) [nM] | other results
1 | O=C1COc2ccccc2N1CCN1CCC(C(=O)NCc2ccccc2)(c2ccccc2)CC1 | 43 |  | 
2 | CC(C)(C)OC(=O)N1CCN(CCNC(=O)c2cc(Cl)ccc2C2CCN(CCN3C(=O)COc4ccccc43)CC2)CC1 | 0.01 | 65 | half-life [3]: 127 min; Cmax [4]: 553 ng/mL; Activity (Rattus norvegicus [5]): inactive; Activity (Rattus norvegicus [6]): Active
3 | CC(C)(C)CC(=O)N1CCC(CNC(=O)c2cc(Cl)ccc2C2CCN(CCN3C(=O)COc4ccccc43)CC2)CC1 |  | 27 | 
4 | O=C(NCC1CCN(C(=O)c2ccccc2)CC1)c1cc(Cl)ccc1C1CCN(CCN2C(=O)COc3ccccc32)CC1 |  | 160 | 
5 | CC(C)(C)OC(=O)N1CCC(CCNC(=O)c2cc(Cl)ccc2C2CCN(CCN3C(=O)COc4ccccc43)CC2)CC1 |  | 77 | 
6 | CN(CCCc1ccccc1)C(=O)C1(c2ccccc2)CCN(CCN2C(=O)COc3ccccc32)CC1 | 9.1 |  | 
7 | CN(CCc1ccccc1)C(=O)C1(c2ccccc2)CCN(CCN2C(=O)COc3ccccc32)CC1 | 12 |  | 
